Earlier results on 1 compound are cited in patent publication US20180193305A1, “CROMOLYN COMPOSITIONS FOR TREATMENT OF CHRONIC COUGH DUE TO IDIOPATHIC PULMONARY FIBROSIS” (Patara Pharma, LLC, priority 2016, published 2018).

Molecules are shown by their SMILES. Like-named read-outs stand apart in the source and are kept apart here.

For this series the following is noted: in vivo.

`O=C(O)c1cc(=O)c2c(OCC(O)COc3cccc4oc(C(=O)O)cc(=O)c34)cccc2o1` [cromolyn sodium, disodium 5,5′-(2-hydroxypropane-1,3-diyl)bis(oxy)bis(4-oxo-4H-chromene-2-carboxylate)]: the Oral bioavailability is approximately 1%. For the setting “listed as cromolyn”, the Oral bioavailability result is on record as “about 1%”.
